Source: patent publication US20070117833A1, “Pharmaceutical compositions” (priority 2003, published 2007)

Assays:
[1] = 4-week toxicity study in monkeys; format: in vivo
Method: (§1) Rapamycin or derivatives thereof are well tolerated at dosages required for use in accordance with the present invention. For example, the NTEL for Compound A in a 4-week toxicity study is 0.5 mg/kg/day in rats and 1.5 mg/kg/day in monkeys.

[2] = 4-week toxicity study in rats; format: in vivo
Method: as §1

[3] = tested on: human rheumatoid synovial fibroblast; experiment: Spontaneous proliferation of human rheumatoid synovial fibroblast; format: cell-based
[4] = tested on: rheumatoid arthritis; experiment: Placebo-controlled, double blind clinical trial in RA patients who are methotrexate partial responders; format: in vivo, human; conditions: 6 mg/day in combination with background methotrexate
Method: 120 patients who are methotrexate partial responders are randomized in 2 groups to receive the mTOR inhibitor a) or placebo once daily for 12 weeks while continuing their background methotrexate treatment. There is an initial Screening visit (days −21 to −7) prior to the baseline. Disease status is assessed at the Screening and Baseline visits. During the 12 weeks treatment period the patients will be seen at Weeks 1, 2, 4, 8 and 12 and in the follow-up period at Weeks 14, 16, 20 and 24.
The criteria for inclusion of the patients in the trial: they must have a diagnosis of RA as defined by the […] revised ARA criteria with disease duration of no less than 6 months. All patients must have active RA as defined by the following parameters: • at least 6 swollen and 9 tender joints based on 58/60 joint count upon entry into the study • one of the following: erythrocyte sedimentation rate (ESR) >28 mm/hr, C-reactive protein (CRP)>1.5 mg/dL or morning stiffness>45 minutes
Patients must have received methotrexate for at least 16 weeks and must be on a stable dose (≧7.5 mg/week) and route of administration for at least 8 weeks prior to Day 1. […]
The primary efficacy outcome measure is the attainment of ACR20 criteria for improvement of RA and the proportion of patients in each group meeting the ACR20 criteria is determined. […]

[5] = tested on: LPS induced fever; experiment: LPS fever (antipyretic effects); format: in vivo; conditions: rats, LPS 100 μg/kg s.c., p.o.; (95% limits)
Method: LPS fever. An injection of lypopolysaccharide (LPS) at a dose of 100 μg/kg in 5 ml/kg is given subcutaneously, and 2 hours later the temperature is measured using a rectal thermocouple. The rats are then placed into matched treatment groups according to their temperature responses. At time +4 hours, the mTOR inhibitor is administered p.o., and the final temperatures measured again at time +6 hours. The increase in temperature is calculated for each animal and the % inhibition determined for each treatment group compared to the vehicle control group.

[6] = tested on: IL-1β induced fever; experiment: IL-1 fever (antipyretic effects); format: in vivo; conditions: rats, 100 ng IL-1β i.v., p.o.
Method: IL-1 fever. Baseline temperature is measured and the rats placed into matched groups. The animals are dosed with the mTOR inhibitor (0.5, 2 or 4 mg/kg) p.o., and 30 minutes later given an injection of 100 ng IL-1β i.v. At time +4hours the final temperatures are measured and the % inhibition calculated as for LPS fever.

[7] = tested on: paw hyperalgesia; experiment: Anti-nociceptive activity in a model of inflammatory pain (intra-plantar yeast hyperalgesia); format: in vivo, male OFA rats
Method: Hyperalgesia is induced by an intra-plantar yeast injection and nociception measured by applying increasing pressure to the foot until the animal vocalizes or withdraws its foot from the pressure pad. The baseline pressure required to induce vocalization or withdrawal of the paw of male OFA rats is measured (−2 hours), followed by an intra-plantar injection of 100 μl of a 20% yeast suspension in water in the hind paw. The rats are treated orally with rapamycin or a derivative thereof (0.5, 2 or 4 mg/kg) or vehicle (saline) p.o. 2 hours later (0 hours), and the pressure test repeated 1 and 2 hours after dosing. The pressure required to induce vocalization or paw withdrawal of the compound-treated rats at these time-points is compared to that of vehicle-treated animals.

| SMILES | NTEL [1] [mg/kg/day] | NTEL [2] [mg/kg/day] | concentration at which maximal effects are observed ([3]; bromodeoxyuridine method) [pM] | suppression of the growth of synovial cells ([3]; by both criteria: bromodeoxyuridine incorporation and direct counting of viable cells) | concentration at which maximal effects are shown ([3]; direct cell counting) [nM] | ACR Responders (in %) to ACR20 ([4]; Week 2) [%] | ACR Responders (in %) to ACR20 ([4]; Week 12) [%] | ED50 inhibition of LPS-induced fever [5] | ED50 inhibition of IL-1β-induced fever [6] [mg/kg p.o.] | inhibition of paw hyperalgesia ([7]; 2 mg/kg p.o., 1 hour after dosing) | inhibition of paw hyperalgesia ([7]; 4 mg/kg p.o., 1 hour after dosing) | inhibition of paw hyperalgesia ([7]; 4 mg/kg p.o., 2 hours after dosing) | concentration at which suppression is maximal ([3]; synovial cell growth assessed by total intracellular ATP levels) [pM] |
| --- | --- | --- | --- | --- | --- | --- | --- | --- | --- | --- | --- | --- | --- |
| CO[C@H]1C[C@@H]2CC[C@@H](C)[C@@](O)(O2)C(=O)C(=O)N2CCCC[C@H]2C(=O)O[C@H]([C@H](C)C[C@@H]2CC[C@@H](OCCO)[C@H](OC)C2)CC(=O)[C@H](C)/C=C(\C)[C@@H](O)[C@@H](OC)C(=O)[C@H](C)C[C@H](C)/C=C/C=C/C=C/1C [Compound A, 40-0-(2-hydroxyethyl)-rapamycin] | 1.5 | 0.5 | 10 | significantly suppresses | 10 | 14.8 | 36.1 | 1.9 (1.21-2.41) mg/kg p.o. | < 0.54 | significantly inhibits | significantly inhibits | significantly inhibits |  |
| CO[C@H]1C[C@@H]2CC[C@@H](C)[C@@](O)(O2)C(=O)C(=O)N2CCCC[C@H]2C(=O)O[C@H]([C@H](C)C[C@@H]2CC[C@@H](O)[C@H](OC)C2)CC(=O)[C@H](C)/C=C(\C)[C@@H](O)[C@@H](OC)C(=O)[C@H](C)C[C@H](C)/C=C/C=C/C=C/1C [rapamycin, Rapamycin, reference compound] |  |  |  |  |  |  |  |  |  |  |  |  | 10 |
